Experiments:
[1] = test system: V9m reporter cell line expressing a 15-PGDH luciferase fusion construct; test: 15-PGDH-luciferase fusion gene reporter induction, V9m cell line; format: cell-based; settings: […], % increased luciferase activity over basal level
In short: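 Colon cancer reporter lines were treated with compound at 2.5 uM or 7.5 uM. Luciferase activity is expressed as % increase over basal level in DMSO vehicle-treated cells, where 100 means a doubling.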

[2] = test system: CD45.2 marked C57BL/6J donor marrow in lethally irradiated CD45.1 mice; test: Competitive bone marrow transplant, chimerism; format: in vivo; settings: donor 5 mg/kg IP daily for 3 doses; weeks 12 and 16
Experimental: On day 3 mice were sacrificed, marrow flushed and mixed at a 1:1 ratio with vehicle treated CD45.1 marrow. 2 million whole BM cells were injected into the tail vein of lethally irradiated CD45.1 mice and percent chimerism measured via flow cytometry at weeks 8, 12, 16.

C57BL/6J and FVB mice = test: Liver regeneration after partial hepatectomy; format: in vivo
C57BL/6J mice = test: Survival following acetaminophen (Tylenol) overdose; format: in vivo; settings: for Number of mice surviving: Table 10, first dose immediately after Tylenol;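 for all read-outs here: control mice received vehicle only, given once or twice per day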

Q: Which “V9M reporter activity ([…])” value [1] does the source give for `CCCC[S+]([O-])c1sc2nc(-c3cccs3)cc(-c3ccccc3)c2c1N` (centres unmarked) [SW033291, 2-(butylsulfinyl)-4-phenyl-6-(thiophen-2-yl)thieno[2,3-b]pyridin-3-amine] here?
A: 93.16%

Q: What about the “V9M reporter activity ([…])” value ([1]; 100 = doubling) of the same molecule?
A: 98.24%

Q: What about the “Percent blood chimerism of CD45.2 marked cells” value [2] of the same molecule?
A: significantly increased

Q: What about the “Hepatic mitosis, in words” value (C57BL/6J and FVB mice; C57BL/6J, 5 mg/kg IP daily) of the same molecule?
A: significantly increased hepatic mitosis versus controls on days 3 and 4

Q: And the “Serum ALT levels” value (C57BL/6J and FVB mice; one mouse, 5 mg/kg IP twice daily)?
A: lower

Q: And the “BrdU positive cells in liver, in words” value (C57BL/6J and FVB mice; post-operative day 2)?
A: clear increase in numbers of BrdU positive cells

Q: And the “Mice surviving at 120 hours” value (C57BL/6J mice; 5 mg/kg IP bid beginning 3 hours prior to acetaminophen, 6 doses)?
A: 3 of 6

Q: What about the “Mice surviving at 120 hours” value (C57BL/6J mice; 5 mg/kg IP bid beginning 48 hours prior to acetaminophen, 9 doses) of the same molecule?
A: 10 of 12

Q: What about the “Number of mice surviving” value (C57BL/6J mice; 1 dose daily, 16 hr) of the same molecule?
A: 6

Q: And the “Number of mice surviving” value (C57BL/6J mice; 1 dose daily, 24 hrs)?
A: 6

Q: And the “Number of mice surviving” value (C57BL/6J mice; 2 dose daily, 16 hr)?
A: 6

Q: What about the “Number of mice surviving” value (C57BL/6J mice; 2 dose daily, 24 hrs) of the same molecule?
A: 6

Q: And the “Number of mice surviving” value (C57BL/6J mice; 2 dose daily, 48 hrs)?
A: 3

Q: And the “Number of mice surviving” value (C57BL/6J mice; 2 dose daily, 64 hrs)?
A: 3

Q: And the “Number of mice surviving” value (C57BL/6J mice; 2 dose daily, 72 hrs)?
A: 3

Q: And the “Number of mice surviving” value (C57BL/6J mice; 2 dose daily, 88 hr)?
A: 3

Q: What about the “Number of mice surviving” value (C57BL/6J mice; 2 dose daily, 96 hr) of the same molecule?
A: 3

Q: What about the “Number of mice surviving” value (C57BL/6J mice; 2 dose daily, 112 hr) of the same molecule?
A: 3

Q: What about the “Number of mice surviving” value (C57BL/6J mice; 2 dose daily, 120 hr) of the same molecule?
A: 3

Q: What about the “Survival (number of mice)” value (C57BL/6J mice; Table 11, bid beginning 48 hours prior to acetaminophen, 16 hr) of the same molecule?
A: 12

Q: What about the “Survival (number of mice)” value (C57BL/6J mice; Table 11, bid beginning 48 hours prior to acetaminophen, 24 hrs) of the same molecule?
A: 12

Q: What about the “Survival (number of mice)” value (C57BL/6J mice; Table 11, bid beginning 48 hours prior to acetaminophen, 40 hrs) of the same molecule?
A: 11

Q: And the “Survival (number of mice)” value (C57BL/6J mice; Table 11, bid beginning 48 hours prior to acetaminophen, 48 hrs)?
A: 10

Q: What about the “Survival (number of mice)” value (C57BL/6J mice; Table 11, bid beginning 48 hours prior to acetaminophen, 64 hrs) of the same molecule?
A: 10

Q: What about the “Survival (number of mice)” value (C57BL/6J mice; Table 11, bid beginning 48 hours prior to acetaminophen, 72 hrs) of the same molecule?
A: 10

Q: What about the “Survival (number of mice)” value (C57BL/6J mice; Table 11, bid beginning 48 hours prior to acetaminophen, 88 hr) of the same molecule?
A: 10

Q: And the “Survival (number of mice)” value (C57BL/6J mice; Table 11, bid beginning 48 hours prior to acetaminophen, 96 hr)?
A: 10

Q: What about the “Survival (number of mice)” value (C57BL/6J mice; Table 11, bid beginning 48 hours prior to acetaminophen, 112 hr) of the same molecule?
A: 10

Q: What about the “Survival (number of mice)” value (C57BL/6J mice; Table 11, bid beginning 48 hours prior to acetaminophen, 120 hr) of the same molecule?
A: 10

Q: And the “Survival (number of mice)” value (C57BL/6J mice; Table 12, bid beginning 3 hours prior to acetaminophen, 16 hr)?
A: 6

Q: And the “Survival (number of mice)” value (C57BL/6J mice; Table 12, bid beginning 3 hours prior to acetaminophen, 24 hrs)?
A: 5

Q: What about the “Survival (number of mice)” value (C57BL/6J mice; Table 12, bid beginning 3 hours prior to acetaminophen, 48 hrs) of the same molecule?
A: 3

Q: And the “Survival (number of mice)” value (C57BL/6J mice; Table 12, bid beginning 3 hours prior to acetaminophen, 64 hrs)?
A: 3

Q: And the “Survival (number of mice)” value (C57BL/6J mice; Table 12, bid beginning 3 hours prior to acetaminophen, 72 hrs)?
A: 3

Q: What about the “Survival (number of mice)” value (C57BL/6J mice; Table 12, bid beginning 3 hours prior to acetaminophen, 88 hr) of the same molecule?
A: 3

Q: What about the “Survival (number of mice)” value (C57BL/6J mice; Table 12, bid beginning 3 hours prior to acetaminophen, 96 hr) of the same molecule?
A: 3

Q: And the “Survival (number of mice)” value (C57BL/6J mice; Table 12, bid beginning 3 hours prior to acetaminophen, 112 hr)?
A: 3

Q: What about the “Survival (number of mice)” value (C57BL/6J mice; Table 12, bid beginning 3 hours prior to acetaminophen, 120 hr) of the same molecule?
A: 3

— US10301320B2, “Compositions and methods of modulating 15-PGDH activity” (CASE WESTERN RESERVE UNIVERSITY, priority 2012, dated 2019)
